Test results as given in ChEMBL document CHEMBL4765288, “Synthesis of novel monocarbonyl curcuminoids, evaluation of their efficacy against MRSA, including ex vivo infection model and their mechanistic studies” (Eur J Med Chem, 2020).
Calls of active or inactive are those of the source. No cut-off for these calls is given here.

Assays:
Staphylococcus aureus [1] = test: Antibacterial activity against methicillin resistant Staphylococcus aureus S-30 after 16 to 18 hrs by CLSI-based microbroth dilution method; type: functional; conditions: time 16-18 hrs
Staphylococcus aureus [2] = test: Antibacterial activity against methicillin resistant Staphylococcus aureus S-41 after 16 to 18 hrs by CLSI-based microbroth dilution method; type: functional; conditions: time 16-18 hrs
Escherichia coli [3] = test: Antibacterial activity against Escherichia coli ATCC 25922 after 16 to 18 hrs by CLSI-based microbroth dilution method; type: functional; conditions: time 16-18 hrs
Staphylococcus aureus [4] = test: Antibacterial activity against methicillin resistant Staphylococcus aureus S-34 after 16 to 18 hrs by CLSI-based microbroth dilution method; type: functional; conditions: time 16-18 hrs
Staphylococcus aureus [5] = test: Antibacterial activity against methicillin resistant Staphylococcus aureus S-33 after 16 to 18 hrs by CLSI-based microbroth dilution method; type: functional; conditions: time 16-18 hrs
Staphylococcus aureus [6] = test: Antibacterial activity against methicillin susceptible Staphylococcus aureus ATCC 29213 after 16 to 18 hrs by CLSI-based microbroth dilution method; type: functional; conditions: time 16-18 hrs
Staphylococcus aureus [7] = test: Antibacterial activity against methicillin resistant Staphylococcus aureus S-37 after 16 to 18 hrs by CLSI-based microbroth dilution method; type: functional; conditions: time 16-18 hrs
Cell membrane [8] = test: Induction of cell membrane damage in Staphylococcus aureus ATCC 33591 assessed as membrane surface perturbation with multiple dent and bleb formation at 5 times MIC after 4 hrs by scanning electron microscopy; type: subcellular
Cell membrane [9] = test: Induction of cell membrane damage in Staphylococcus aureus ATCC 33591 at 5 times MIC assessed as loss of cell viability measured after 2 hrs by confocal microscopy
Staphylococcus aureus [10] = test: Antibacterial activity against methicillin resistant Staphylococcus aureus ATCC 33591 after 16 to 18 hrs by CLSI-based microbroth dilution method; type: functional; conditions: time 16-18 hrs
Cell membrane [11] = test: Induction of cytoplasmic membrane depolarization in methicillin resistant Staphylococcus aureus ATCC 33591 at 5 times MIC by [DiSC3(5)] probe based fluorescence assay relative to control; type: subcellular; conditions: time 2.0 hrs
Cell membrane [12] = test: Induction of cytoplasmic membrane permeabilization in Staphylococcus aureus ATCC 33591 at 5 times MIC measured after 2 min using calcein-AM as substrate by dye based fluorescence assay relative to control; type: subcellular
[13] = Cytotoxicity against mouse 3T3 cells assessed as reduction in cell viability at 150 ug/ml after 4 hrs by MTT assay (reference value: 90.42 +/- 0.03%); type: cell-based; conditions: at 150 µg/mL, read-out: Activity
Escherichia coli [14] = test: Antibacterial activity against Escherichia coli ATCC 11775 after 16 to 18 hrs by CLSI-based microbroth dilution method; type: functional; conditions: time 16-18 hrs
[15] = Hemolytic activity in mouse RBC at 150 ug/ml after 1 hr by microplate reader analysis relative to control; type: ADME, cell-based, Erythrocyte; conditions: mouse red blood cells (erythrocytes), at 150 µg/mL, read-out: Activity
Escherichia coli [16] = test: Antibacterial activity against Escherichia coli E-52 after 16 to 18 hrs by CLSI-based microbroth dilution method; type: functional; conditions: time 16-18 hrs
[17] = Cytotoxicity against mouse 3T3 cells assessed as reduction in cell viability at 75 ug/ml after 4 hrs by MTT assay (reference value: 90.42 +/- 0.03%); type: cell-based; conditions: 3t3, 4 h, at 75 µg/mL
Staphylococcus aureus [18] = test: Bactericidal activity against methicillin-resistant Staphylococcus aureus assessed as complete bacterial killing at 5 times MIC measured after 6 hrs by time-kill assay; type: functional, organism-based
Cell membrane [19] = test: Induction of cytoplasmic membrane permeabilization in Staphylococcus aureus ATCC 33591 at 5 times MIC measured after 120 min using calcein-AM as substrate by dye based fluorescence assay relative to control; type: subcellular
Staphylococcus aureus [20] = test: Antibacterial activity against methicillin resistant Staphylococcus aureus ATCC S-28 after 16 to 18 hrs by CLSI-based microbroth dilution method; type: functional; conditions: time 16-18 hrs
Escherichia coli [21] = test: Antibacterial activity against Escherichia coli E-74 after 16 to 18 hrs by CLSI-based microbroth dilution method; type: functional; conditions: time 16-18 hrs
Escherichia coli [22] = test: Antibacterial activity against Escherichia coli E-59 after 16 to 18 hrs by CLSI-based microbroth dilution method; type: functional; conditions: time 16-18 hrs
Staphylococcus aureus [23] = test: Antibacterial activity against methicillin susceptible Staphylococcus aureus ATCC 29213 infected in mouse 3T3 cells assessed as bacterial load at 5 times MIC after 16 hrs (reference value: 6.6 log CFU/ml); type: functional
[24] = Hemolytic activity in mouse RBC at 75 ug/ml after 1 hr by microplate reader analysis relative to control; type: ADME, cell-based, Erythrocyte; conditions: mouse red blood cells (erythrocytes), at 75 µg/mL, read-out: Activity
Staphylococcus aureus [25] = test: Bactericidal activity against methicillin-resistant Staphylococcus aureus assessed as reduction in viable count at 5 times MIC measured upto 4 hrs by time-kill assay; type: functional; conditions: time hrs <=4

Compound	MIC (Staphylococcus aureus [1])	MIC (Staphylococcus aureus [2])	MIC (Escherichia coli [3])	MIC (Staphylococcus aureus [4])	MIC (Staphylococcus aureus [5])	MIC (Staphylococcus aureus [6])	MIC (Staphylococcus aureus [7])	Activity (Cell membrane [8])	Activity (Cell membrane [9])	MIC (Staphylococcus aureus [10])	Activity (Cell membrane [11])	Activity (Cell membrane [12])	viability at 4 h, 150 ug/ml [13]	MIC (Escherichia coli [14])	hemolysis at 1 h, 150 ug/ml [15]	MIC (Escherichia coli [16])	Activity [17]	Activity (Cell membrane [19])	MIC (Staphylococcus aureus [20])	MIC (Escherichia coli [21])	also measured
COc1cc(/C=C2\CC/C(=C\c3ccc(OCCCN4CCCCCC4)c(OC)c3)C2=O)ccc1OCCCN1CCCCCC1.Cl.Cl	8 µg/mL	8 µg/mL	16 µg/mL	8 µg/mL	8 µg/mL	2 µg/mL	8 µg/mL	Active	Active	4 µg/mL	95.7%	80.6%	14.8%	16 µg/mL	9.32%	32 µg/mL	7.03%	93.2%	8 µg/mL	32 µg/mL	Activity (Staphylococcus aureus [18]): Active; MIC (Escherichia coli [22]): 32 µg/mL; Activity (Staphylococcus aureus [23]): 3.91 log10CFU/ml; hemolysis at 1 h, 75 ug/ml [24]: 6.19%
COc1cc(/C=C/C(=O)CC(=O)/C=C/c2ccc(O)c(OC)c2)ccc1O [CURCUMIN]						> 256 µg/mL				> 256 µg/mL											
Cl.Cl.O=C1/C(=C/c2ccc(OCCCCN3CCCCCC3)cc2)CC/C1=C\c1ccc(OCCCCN2CCCCCC2)cc1	4 µg/mL	8 µg/mL	16 µg/mL	8 µg/mL	8 µg/mL	4 µg/mL	8 µg/mL	Active	Active	4 µg/mL	95.7%	76.6%	14.8%	16 µg/mL	9.32%	16 µg/mL	7.03%	90.3%	4 µg/mL	32 µg/mL	Activity (Staphylococcus aureus [25]): 4.3 log10CFU/ml; MIC (Escherichia coli [22]): 32 µg/mL; Activity (Staphylococcus aureus [23]): 3 log10CFU/ml; hemolysis at 1 h, 75 ug/ml [24]: 6.19%
COc1cc(/C=C2\CC/C(=C\c3ccc(OCCCCN4CCCCCC4)c(OC)c3)C2=O)ccc1OCCCCN1CCCCCC1.Cl.Cl	8 µg/mL	8 µg/mL	16 µg/mL	16 µg/mL	8 µg/mL	2 µg/mL	16 µg/mL	Active	Active	4 µg/mL	90.7%	69.7%	14.8%	16 µg/mL	9.32%	32 µg/mL	7.03%	89%	8 µg/mL	32 µg/mL	MIC (Escherichia coli [22]): 32 µg/mL; Activity (Staphylococcus aureus [23]): 3.23 log10CFU/ml; hemolysis at 1 h, 75 ug/ml [24]: 6.19%
